Reference: PubChem BioAssay (NCI)
“And” between values parts separate entries of the source, which are not always exact repeats. Equal entries are not always repeated.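 Compound exposure: 48 hours, 5 concentrations, 96-well plates. At the GI50, growth is halved. TGI denotes the concentration required for complete inhibition of growth.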

What was measured:
Assay in all cases: NCI anticancer screen, dose series, 48 h
HS 578T breast = test system: HS 578T breast
KM12 colon = test system: KM12 colon
MDA-MB-231 breast = test system: MDA-MB-231 breast
NCI-H460 lung = test system: NCI-H460 lung
OVCAR-8 ovarian = test system: OVCAR-8 ovarian
SK-MEL-5 melanoma = test system: SK-MEL-5 melanoma
SN12C renal = test system: SN12C renal
SNB-19 CNS = test system: SNB-19 CNS
UACC-257 melanoma = test system: UACC-257 melanoma
UO-31 renal = test system: UO-31 renal

With `CC#CC(=O)N[C@H]1CCCN(c2c(F)cc(C(N)=O)c3[nH]c(C)c(C)c23)C1` the GI50 (HS 578T breast) was 16.4 µM, the TGI (HS 578T breast) was 83.3 µM and the GI50 (KM12 colon) was 14.3 µM. The TGI (KM12 colon) was 46.4 µM, the GI50 (MDA-MB-231 breast) was 14 µM and the TGI (MDA-MB-231 breast) was 29.1 µM. It also gave a GI50 (NCI-H460 lung) of 18.1 µM, a TGI (NCI-H460 lung) of 33.4 µM and a GI50 (OVCAR-8 ovarian) of 26.1 µM. The TGI (OVCAR-8 ovarian) was 94.7 µM, the GI50 (SK-MEL-5 melanoma) was 17.9 µM and the TGI (SK-MEL-5 melanoma) was 31.9 µM. The GI50 (SN12C renal) was 20.4 µM, the TGI (SN12C renal) was 58.2 µM and the GI50 (SNB-19 CNS) was 15.3 µM. It also gave a TGI (SNB-19 CNS) of 28.6 µM, a GI50 (UACC-257 melanoma) of 14.5 µM and a TGI (UACC-257 melanoma) of 34.9 µM. The GI50 (UO-31 renal) was 15.9 µM and the TGI (UO-31 renal) was > 100 µM.
For `COc1cc(/C=N/Nc2ncnc3c2cnn3Cc2ccccc2)ccc1O`, the GI50 (HS 578T breast) was 4.16 µM, the TGI (HS 578T breast) was > 21.2 µM and the GI50 (KM12 colon) was 7.68 µM. The TGI (KM12 colon) was > 25 µM, the GI50 (MDA-MB-231 breast) was 3.43 µM and the TGI (MDA-MB-231 breast) was > 25 µM. For the same compound, the GI50 (NCI-H460 lung) was 8.98 µM, the TGI (NCI-H460 lung) was > 25 µM and the GI50 (OVCAR-8 ovarian) was 5.85 µM. For the same compound, the TGI (OVCAR-8 ovarian) was > 19.8 µM, the GI50 (SK-MEL-5 melanoma) was 12.2 µM and the TGI (SK-MEL-5 melanoma) was > 25 µM. For the same compound, the GI50 (SN12C renal) was > 15.8 µM, the TGI (SN12C renal) was > 25 µM and the GI50 (SNB-19 CNS) was 9.22 µM. The TGI (SNB-19 CNS) was > 25 µM, the GI50 (UACC-257 melanoma) was > 16.7 µM and the TGI (UACC-257 melanoma) was > 25 µM. The GI50 (UO-31 renal) was 1.93 µM and the TGI (UO-31 renal) was 11.9 µM.
With `COc1cc([N+](=O)[O-])c(OC)cc1-c1nc2n(c1/C(N)=N/C(=N)N)CCS2` the GI50 (HS 578T breast) was 32.5 µM, the TGI (HS 578T breast) was > 100 µM and the GI50 (KM12 colon) was > 100 µM. The TGI (KM12 colon) was > 100 µM, the GI50 (MDA-MB-231 breast) was 27 µM and the TGI (MDA-MB-231 breast) was > 100 µM. The GI50 (NCI-H460 lung) was 70.1 µM, the TGI (NCI-H460 lung) was > 100 µM and the GI50 (OVCAR-8 ovarian) was 17.5 µM. For the same compound, the TGI (OVCAR-8 ovarian) was > 100 µM, the GI50 (SK-MEL-5 melanoma) was 75.3 µM and the TGI (SK-MEL-5 melanoma) was > 100 µM. For the same compound, the GI50 (SN12C renal) was > 100 µM, the TGI (SN12C renal) was > 100 µM and the GI50 (SNB-19 CNS) was 10.2 µM. The TGI (SNB-19 CNS) was > 100 µM, the GI50 (UACC-257 melanoma) was 15.9 µM and the TGI (UACC-257 melanoma) was 57 µM. For the same compound, the GI50 (UO-31 renal) was > 100 µM and the TGI (UO-31 renal) was > 100 µM.
For `COc1cc(C(=O)Nc2cc(O)c(C/C=C(\C)CCC=C(C)C)c(O)c2)cc2c1O[C@]1(C)CC[C@@H](O)C(C)(C)[C@H]1C2`, the GI50 (HS 578T breast) was 0.0144 µM, the TGI (HS 578T breast) was 14.8 µM and the GI50 (KM12 colon) was 2.39 µM and 1.52 µM. The TGI (KM12 colon) was 12.8 µM, the GI50 (MDA-MB-231 breast) was 1.01 µM and 0.461 µM and the TGI (MDA-MB-231 breast) was 5.53 µM and 5.34 µM. The GI50 (NCI-H460 lung) was 0.083 µM and 0.101 µM, the TGI (NCI-H460 lung) was 13.5 µM and the GI50 (OVCAR-8 ovarian) was 4.28 µM and 2.21 µM. The TGI (OVCAR-8 ovarian) was 31.4 µM, the GI50 (SK-MEL-5 melanoma) was 0.177 µM and 0.631 µM and the TGI (SK-MEL-5 melanoma) was 2.1 µM and 3.99 µM. For the same compound, the GI50 (SN12C renal) was 1.95 µM and 2.44 µM, the TGI (SN12C renal) was 19.9 µM and the GI50 (SNB-19 CNS) was 3.28 µM and 1.9 µM. For the same compound, the TGI (SNB-19 CNS) was 26.4 µM, the GI50 (UACC-257 melanoma) was 4.91 µM and 1.58 µM and the TGI (UACC-257 melanoma) was 23.8 µM. The GI50 (UO-31 renal) was 0.0786 µM and 0.237 µM and the TGI (UO-31 renal) was 0.6 µM and 1.29 µM.
